Here are results for nine compounds from PubChem BioAssay (NCI).

Test in all cases: DTP human tumour cell line panel, 48 h
In test [1] the test system is IGROV1 ovarian.
Test [2] relates to MDA-MB-231 breast.
The subject of test [3] is OVCAR-8 ovarian.
The test system of test [4] is RPMI-8226 leukemia.
The test system of test [5] is SF-539 CNS.
Test [6] concerns SN12C renal.
In test [7] the test system is SNB-19 CNS.
The subject of test [8] is SNB-75 CNS.
Test [9] has as its system UO-31 renal.
Test [10] deals with SF-295 CNS.

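Interpolation was linear, between the two tested concentrations surrounding the appropriate level; five concentrations were tested over 48 hours in 96-well plates. GI50 marks 50% less growth. TGI denotes the concentration required for complete inhibition of growth.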

With `COc1ccc(-c2nc(-c3nc4cc(Cl)c(F)cc4[nH]3)c3ccccn23)cc1`, the GI50 in test [1] was 4.91 µM; in test [2], 5.82 µM; in [3], 3.45 µM; in test [4] it was 3.02 µM; in test [5] it was 39.8 µM; in test [6], 11.2 µM. The GI50 in [7] is 8.34 µM; in test [8] it was 5.31 µM; in [9] it was 2.62 µM. The TGI in [1], in test [2], in [3], in [4], in [5] and in [6] was more than 100 µM in each case. For the same compound, the TGI in test [7] is more than 100 µM; in test [8], more than 100 µM; in test [9], 35.7 µM.

Regarding `Cc1ccc(S(=O)(=O)c2nc(-c3ccccc3)oc2S(C)(=O)=O)cc1`, the GI50 is 1.87 µM in test [2]; 1.96 µM in [3]; 2.33 µM in [4]; 12.2 µM in test [10]; 1.56 µM in test [5]; 1.92 µM in test [6]. The GI50 in [7] was 11.2 µM; in [8], 6.39 µM; in test [9] it was 1.48 µM. Further, the TGI in [2] worked out at 3.76 µM; in [3], 3.8 µM; in test [4], 5.88 µM; in [10] it was 24.6 µM; in test [5], 3.02 µM; in test [6] it was 3.95 µM. Also, the TGI in test [7] worked out at 23.2 µM; in test [8], 18 µM; in test [9], 2.81 µM.

Turning to `CC(/C=C/C(O)=C1/C(=O)CNC1=O)=C\[C@@H](C)[C@H]1O[C@@]2(C)O[C@H](C(=O)[C@@H]3O[C@@]32C)[C@@H]1C`, the TGI in test [1] was found to be 44.9 µM; in test [2] it was 38.1 µM; in test [3] it was 46.4 µM; in test [4], 35.9 µM; in test [5] it was 40 µM; in test [6] it was 47.3 µM. In addition, the TGI in [7] amounted to 55.4 µM; in test [8] it was 63.1 µM; in test [9], 33.2 µM.

For `C=C(CN1CCc2c([nH]c3ccccc23)C1)c1ccc(C(=O)Nc2ccccc2N)cc1`, the GI50 is 1.08 µM in test [1]; 2.74 µM in test [2]; 1.9 µM in test [3]; 0.356 µM in test [4]; 16.6 µM in [10]; 2.76 µM in test [5]. The GI50 in test [6] is 2.33 µM; in test [7] it was 10.7 µM; in test [9], 3.53 µM. Also, the TGI in [1] is 18.9 µM; in test [2], 12.9 µM; in test [3], 14.7 µM; in [4], 3.57 µM; in [10], 27.8 µM; in test [5], 9.81 µM. Moreover, the TGI worked out at 9.98 µM in test [6], 30.8 µM in test [7] and 9.89 µM in test [9].

Turning to `CCSc1ccc([C@@H]2[C@@H](O)C(=O)N2c2cc(OC)c(OC)c(OC)c2)cc1`, the GI50 in [1] was 0.0235 µM; in [2] it was 0.0395 µM; in test [3], 0.0211 µM; in test [4], 0.0279 µM; in [10], less than 0.01 µM; in test [6], 0.0441 µM. The 50% growth inhibitory concentration (GI50) in [7] was less than 0.01 µM; in [8], less than 0.011 µM; in test [9] it was 0.21 µM. Also, the TGI in [1] is 66.2 µM; in test [2], 29.4 µM; in test [3], 16.8 µM; in test [4] it was 12 µM; in test [10] it was 17.5 µM; in [6], 22.2 µM. Also, the TGI in [7] was more than 100 µM; in [8] it was 65.1 µM; in [9] it was 34.2 µM.

Take `COc1ccc2c(c1)C(=O)/C(=C/c1cccc(OCC(=O)Nc3nc(C)c(C)s3)c1)O2`: the GI50 was 0.121 µM in test [2]; 0.647 µM in [3]; 0.104 µM in test [4]; 12.7 µM in [10]; 0.052 µM in test [5]; 0.171 µM in test [6]. Besides, the GI50 in test [7] was 12.2 µM; in test [8], 0.0115 µM; in test [9], 0.0222 µM. Further, the TGI in test [2] is 0.738 µM; in test [3] it was 12.9 µM; in [4], 0.587 µM; in test [10] it was 26.3 µM; in test [5], 0.0965 µM; in test [6], 2.66 µM. The figures for the TGI in test [7], in test [8] and in test [9] were 25.7 µM, 0.037 µM and 0.0378 µM, respectively.

Take `C/C(=C(/c1ccccc1)c1ccc(OCC(O)CNCCN2CCOCC2)cc1)c1ccccc1` (centres undefined): the GI50 was 3.97 µM in test [1]; 1.78 µM in test [2]; 3.74 µM in [3]; 1.92 µM in [10]; 1.63 µM in [5]; 5.08 µM in [6]. Moreover, the GI50 was 4.77 µM in [7], 2.68 µM in [8] and 1.37 µM in [9]. Also, the TGI in test [1] came out at 15 µM; in test [2] it was 3.83 µM; in test [3], 15.1 µM; in test [10], 3.63 µM; in test [5], 2.99 µM; in [6] it was 18.5 µM. The results for the total growth inhibition concentration (TGI) in [7], in test [8] and in [9] were 17.8 µM, 15.6 µM and 2.77 µM, respectively.

As for `CCCc1nc(Cl)nc(Cl)c1Cl`, the TGI is 2.14 µM in test [1]; 2.07 µM in [2]; 0.637 µM in test [3]; 6.89 µM in [10]; 2.94 µM in test [5]; 2.13 µM in test [6]. For the same compound, the TGI in test [7] is 2.57 µM; in [8] it was 6 µM; in [9], 0.111 µM.

As for `O=C(CC1(O)C(=O)Nc2ccc(F)cc21)c1ccc(C(=O)NCC2CCC3(CC2)OOC2(CCCCC2)OO3)cc1` (centres undefined), the GI50 in test [1] is 1.64 µM; in test [2], 9.92 µM; in [3] it was 6.3 µM; in test [4], 2.57 µM; in test [10], 3.69 µM; in test [5], 3.64 µM. Also, the GI50 in [6] is 10.8 µM; in test [7] it was 14.8 µM; in test [9] it was 0.858 µM. Moreover, the TGI in [1] stood at 6.63 µM; in test [2], 29.9 µM; in [3], 35.8 µM; in test [4] it was 8.55 µM; in test [10], 16.2 µM; in test [5], 14.8 µM. Also, the TGI in [6] came to 33.6 µM; in test [7], 36.5 µM; in [9] it was 2.28 µM.

For orientation: GI50 means the concentration giving 50% growth inhibition. Broadly, the TGI is the concentration at which net growth stops. A low value points to greater sensitivity of the cells.
